Measured values reported in patent US9611500B2, “Method for detecting the presence of the viable cells in an endodontic sample” (KINGS COLLEGE LONDON, priority 2011, dated 2017).
Marks after values point to notes of the source that are not given here.

Tested on: Multispecies mature biofilm from clinical isolates (Actinomyces radicidentis, Enterococcus faecalis, Propionibacterium acnes, Streptococcus epidermidis …)
Experiment: Viable post-experimental counts of multi-species biofilms on root halves after irrigation
Format: cell-based
Conditions: 1% NaOCl solution irrigation (5 ml) of root canals of extracted teeth with two-week biofilm; paper point sampling; FAA plates incubated anaerobically 7 days; triplicates
Text: Twenty freshly extracted, single rooted teeth were obtained under ethical Approval (South East London ethical approval 10/H0804/056). Each tooth had the crown removed to obtain 15 mm long specimens, using a 0.3 mm thickness diamond wafering blade (Extec, Enfield, Conn., USA) on a 11-1180 Isomet low speed saw (Buehler, Düsseldorf, Germany). Root canal patency was confirmed using an ISO 10 K-file. Canals were instrumented with Gates Glidden (nr. 2-4) for coronal flaring followed by ProTaper F3 instrumentation and apical instrumentation with an ISO 45 K-file 1 mm short of the working length. Irrigation throughout the instrumentation was undertaken with sterile saline. […]
Multispecies mature biofilm from clinical isolates, identified through sequencing (Actinomyces radicidentis, Enterococcus faecalis, Propionibacterium acnes, Streptococcus epidermidis, Streptococcus oxalis) were grown in 24 multiwell plates for two weeks on root halves using a modification of the established 5-day biofilm protocol (Gmür & Guggenheim 1983). […] The turbidity was adjusted with fresh mFUM to OD at 540 nm (Labsystems iEMS Reader MF) to 0.5. […]
After each root had been subjected to its respective irrigation protocol and imaging steps, the root halves were aseptically placed in a 9 cm petri dish (SLS, East Riding of Yorkshire, UK). […] After the incubation, the numbers of colonies on FAA plates were counted. […]

## OCl [Sodium hypochlorite]
  Microbial counts expressed as log10 (Mean ± SE) after anaerobic growth: 0.51* Log10
